# Measurements taken from the RepoRT retention time repository (doi:10.1016/j.jchromb.2020.122105).
# Legend:
# Settings in all cases: stereoisomer not certain
# [1] = RP, Waters ACQUITY UPLC BEH C18, 100 × 2.1 mm, 1.7 µm, 0.1 mL/min, estimated dead time 2.2 min; A: water + 0.1% formic acid, pH 3; B: methanol + 0.1% formic acid, pH 3; gradient (min/%B) 0/5 5/5 25/100 30/100 30.1/5 35/5
# [2] = RP, Waters ACQUITY UPLC BEH C18, 100 × 2.1 mm, 1.7 µm, 0.1 mL/min, estimated dead time 2.2 min; A: water + 0.1% formic acid, pH 3; B: methanol + 0.1% formic acid, pH 3; gradient (min/%B) 0/5 5/5 25/95 25.1/100 35/100 35.1/5 45/5
# [3] = RP, Waters CORTECS T3, 100 × 2.1 mm, 2.7 µm, 0.3 mL/min, estimated dead time 0.73 min; A: water + 0.1% formic acid, pH 3; B: methanol + 0.1% formic acid, pH 3; gradient (min/%B) 0/5 5/5 25/95 25.1/100 35/100 35.1/5 45/5
# [4] = RP, Waters ACQUITY UPLC BEH C18, 100 × 2.1 mm, 1.7 µm, 0.2 mL/min, estimated dead time 1.1 min; A: water + 0.025% formic acid + 20 mM ammonium acetate + 0.055% ammonium hydroxide, pH 7; B: methanol; gradient (min/%B) 0/5 5/5 25/100 30/100 30.1/5 35/5
# [5] = RP, Waters CORTECS T3, 100 × 2.1 mm, 2.7 µm, 0.3 mL/min, estimated dead time 0.73 min; A: water + 0.1% formic acid, pH 3; B: methanol + 0.1% formic acid, pH 3; gradient (min/%B) 0/0 5/0 25/100 30/100 30.1/0 35/0
# [6] = RP, Waters ACQUITY UPLC BEH C18, 100 × 2.1 mm, 1.7 µm, 0.2 mL/min, estimated dead time 1.1 min; A: water + 0.1% formic acid, pH 3; B: methanol + 0.1% formic acid, pH 3; gradient (min/%B) 0/5 5/5 25/100 30/100 30.1/5 35/5
# [7] = RP, Waters ACQUITY UPLC BEH C18, 100 × 2.1 mm, 1.7 µm, 0.1 mL/min, estimated dead time 2.2 min; A: water + 0.1% formic acid, pH 3; B: methanol + 0.1% formic acid, pH 3; gradient (min/%B) 0/5 5/5 25/95 25.1/100 35/100 35.1/5 45/5; remark: listed apart in the source
# [8] = RP, Waters CORTECS T3, 100 × 2.1 mm, 2.7 µm, 0.2 mL/min, estimated dead time 1.1 min; A: water + 0.1% formic acid, pH 3; B: methanol + 0.1% formic acid, pH 3; gradient (min/%B) 0/5 5/5 25/95 25.1/100 35/100 35.1/5 45/5
# [9] = RP, Waters CORTECS T3, 100 × 2.1 mm, 2.7 µm, 0.2 mL/min, estimated dead time 1.1 min; A: water + 0.1% formic acid, pH 3; B: methanol + 0.1% formic acid, pH 3; gradient (min/%B) 0/0 1/0 6/5 30/100 35/100 35.1/0 40/0
# [10] = RP, Thermo Scientific Hypercarb, 150 × 2.1 mm, 5 µm, 0.1 mL/min, estimated dead time 3.3 min; A: water + 0.1% formic acid, pH 3; B: methanol + 0.1% formic acid, pH 3; gradient (min/%B) 0/5 5/5 20/100 35/100 35.1/5 45/5
# [11] = RP, Waters CORTECS T3, 100 × 2.1 mm, 2.7 µm, 0.3 mL/min, estimated dead time 0.73 min; A: water + 0.1% formic acid, pH 3; B: methanol + 0.1% formic acid, pH 3; gradient (min/%B) 0/0 1/0 6/5 30/100 35/100 35.1/0 40/0
# [12] = RP, Waters CORTECS T3, 100 × 2.1 mm, 2.7 µm, 0.15 mL/min, estimated dead time 1.5 min; A: water + 0.1% formic acid, pH 3; B: methanol + 0.1% formic acid, pH 3; gradient (min/%B) 0/0 1/0 6/5 30/100 35/100 35.1/0 40/0
# [13] = RP, Waters CORTECS T3, 100 × 2.1 mm, 2.7 µm, 0.25 mL/min, estimated dead time 0.88 min; A: water + 0.1% formic acid, pH 3; B: methanol + 0.1% formic acid, pH 3; gradient (min/%B) 0/0 1/0 6/5 30/100 35/100 35.1/0 40/0
# [14] = HILIC, Merck SeQuant ZIC-HILIC, 150 × 2.1 mm, 5 µm, 0.75 mL/min, estimated dead time 0.44 min; A: water + 10 mM ammonium formate, pH 6; B: 5% water + 95% acetonitrile + 10 mM ammonium formate, pH 6; gradient (min/%B) 0/95 5/95 20/57 25/57 30/95 40/95
# [15] = RP, Waters CORTECS T3, 100 × 2.1 mm, 2.7 µm, 0.3 mL/min, estimated dead time 0.73 min; A: water + 0.1% formic acid, pH 3; B: methanol + 0.1% formic acid, pH 3; gradient (min/%B) 0/5 5/5 25/100 30/100 30.1/5 35/5
# [16] = RP, Waters CORTECS T3, 100 × 2.1 mm, 2.7 µm, 0.1 mL/min, estimated dead time 2.2 min; A: water + 0.1% formic acid, pH 3; B: methanol + 0.1% formic acid, pH 3; gradient (min/%B) 0/5 5/5 25/95 25.1/100 35/100 35.1/5 45/5
# [17] = RP, Waters ACQUITY UPLC BEH C18, 100 × 2.1 mm, 1.7 µm, 0.1 mL/min, estimated dead time 2.2 min; A: water + 0.045% formic acid + 0.11% ammonium hydroxide, pH 7; B: methanol; gradient (min/%B) 0/5 5/5 25/95 25.1/100 35/100 35.1/5 45/5
# [18] = RP, Waters CORTECS T3, 100 × 2.1 mm, 2.7 µm, 0.1 mL/min, estimated dead time 2.2 min; A: water + 0.1% formic acid, pH 3; B: methanol + 0.1% formic acid, pH 3; gradient (min/%B) 0/0 1/0 6/5 30/100 35/100 35.1/0 40/0
# [19] = RP, Waters CORTECS T3, 100 × 2.1 mm, 2.7 µm, 0.2 mL/min, estimated dead time 1.1 min; A: water + 0.045% formic acid + 0.11% ammonium hydroxide, pH 7; B: methanol; gradient (min/%B) 0/5 5/5 25/95 25.1/100 35/100 35.1/5 45/5
SMILES,LC retention time [1],LC retention time [2],LC retention time [3],LC retention time [4],LC retention time [5],LC retention time [6],LC retention time [7],LC retention time [8],LC retention time [9],LC retention time [10],LC retention time [11],LC retention time [12],LC retention time [13],LC retention time [14],LC retention time [15],LC retention time [16],LC retention time [17],LC retention time [18],LC retention time [19]
NC(=O)C1CCCN1C(=O)C(Cc1cnc[nH]1)NC(=O)C1CCC(=O)N1 (stereo unspecified) [THYROTROPIN RELEASING HORMONE],2.74 min,2.7 min,0.9 min,7.17 min,0.89 min,1.38 min,2.66 min,2.67 min,1.34 min,15.7 min,0.92 min,1.83 min,1.09 min,–,–,–,–,–,–
"CC1NCCc2cc(O)c(O)cc21 (stereo unspecified) [1-METHYL-6,7-DIHYDROXY-1,2,3,4-TETRAHYDROISOQUINOLINE]",2.74 min,–,0.9 min,–,0.93 min,–,2.66 min,–,1.34 min,17.8 min,0.92 min,1.83 min,–,8.92 min,–,–,–,–,–
C=Cc1c(C)c2cc3[nH]c(cc4nc(cc5nc(cc1[nH]2)C(C)=C5CCC(=O)O)C(CCC(=O)O)=C4C)c(C)c3C=C [PROTOPORPHYRIN],29.5 min,–,26.1 min,25.4 min,25.3 min,–,30.2 min,–,30.7 min,–,29.7 min,31.9 min,30.1 min,–,25.1 min,30.1 min,29.5 min,26.5 min,25.9 min
